The values below come from patent US20100113334A1, “METHODS FOR REDUCING OR PREVENTING TRANSMISSION OF NOSOCOMIAL PATHOGENS IN A HEALTH CARE FACILITY” (priority 2003, published 2010).

One data set concerns Total Enterococci. The experiment in a line: VRE suppression in a mouse model (Example 1), total enterococci in faeces. Type of data set: in vivo, mice. The source says:
Mice were colonized with a clinical isolate VanA strain of E. faecium (VRE) isolated from a septicemic patient. A single inoculation of 5×10^8 cfu VRE by oral gavage (Day 0) was followed by treatment with vancomycin in the drinking water to maintain colonization. On day 22, each group received the same vancomycin-containing drinking water. […] The control group consisted of five mice, while the ramoplanin group consisted of four mice.

Another data set relates to VRE C68. The experiment in a line: Eradication of VRE stool colonization in mice (Example 2). Type of data set: in vivo. How it is done: (§1) Quantification of Stool Pathogens: Fresh stool specimens were processed as described by Donskey et al. (supra). In order to quantify VRE, K. pneumoniae, and C. glabrata, diluted samples were plated onto Enterococcosel agar containing vancomycin 20 μg/mL, MacConkey agar containing ceftazidime 10 μg/mL, or Sabouraud Dextrose Agar (Becton, Dickinson, and Company, Sparks, Md.) containing piperacillin/tazobactam 16 μg/mL and linezolid 8 μg/mL, respectively. The plates were incubated in room air at 37° C. far 24 or 48 hours, and the number of colony-forming units (CFU) of each pathogen per gram of sample was calculated.
High-density VRE stool colonization was established in mice by administering subcutaneous clindamycin (1.4 mg) once each day for 2 days before and 7 days after orogastric inoculation of 10^6 colony-forming units (CFU) of VRE C68 using a stainless steel feeding tube (Perfektum, Popper & Sons, New Hyde Park, N.Y.). […] Six mice were included in each treatment group.
To evaluate the possibility that ramoplanin-treated mice were being re-exposed to VRE from their environment, broth-enrichment cultures for VRE were performed as previously described Ray et al. (JAMA 287: 1400-1401, 2002) after contacting cage bottoms and tops, water bottles, and food with pre-moistened cotton-tipped swabs.

The subject of a further data set is total anaerobes. Kind of data set: Effect on indigenous stool microflora (Example 3), quantitative culture. Type of data set: in vivo, mice. As to conditions: 100 μg/mL in drinking water, seven days.
Data set [1] relates to indigenous stool microflora. The experiment in a line: DGGE of PCR-amplified bacterial ribosomal RNA genes from stool (Example 3). Type of data set: in vivo, mice. As to conditions: oral ramoplanin 100 μg/mL in drinking water.
Another data set deals with K. pneumoniae P62. The experiment in a line: Establishment of colonization during ramoplanin treatment (Example 6). Type of data set: in vivo, mice. As to conditions: inoculated on day 2 of a 6-day course, 100 μg/ml in drinking water. How it is done:
as §1
The density of the pathogens in stool was monitored every 3-4 days. Four mice were included in each treatment group.

The test system of data set [2] is Gram-negative bacteria (enteric bacteria and Bacteroides spp.). The experiment in a line: Activity on stool microflora of healthy volunteers (Example 7.1). As to conditions: 10 days BID. In kind it is in vivo, human. The procedure: (§2) The predetermined dose was reconstituted in 5 mL water per vial, mixed with 50 mL of sweetened, aromatized solution, and immediately administered orally to the subjects.
(§3) Faecal microbial concentrations (organisms per gram of faecal matter) were determined at the following timepoints: day-4 (pre-treatment), days 4 and 10 (treatment), and days […] and 24 (follow-up). Tolerability and absorption were also investigated.

The test system of data set [3] is Gram-positive bacteria (staphylococci, streptococci, enterococci). Described as above. Type of data set: in vivo, human. How it is done:
as §2, §3

Another data set relates to yeast. The data set is described as above. Type of data set: in vivo, human. As to conditions: 10 days BID. The procedure:
as §2, §3

A further data set relates to E. faecium. As to conditions: 10 strains; cited from earlier work.
The test system of a further data set is S. aureus (MRSA). As to conditions: 100 strains; cited from earlier work.
Another data set concerns Bacillus spp. As to conditions: 10 strains; cited from earlier work.
The mark [4] stands for this setting: day 8 of 100 μg/ml drinking water, 8 mice.

For Ramoplanin, the “Enterococci: Total Enterococci” value was 9.8 log 10 cfu/g faeces with Total Enterococci (Day 22, prior to ramoplanin therapy); less than 2.4 log 10 cfu/g faeces in the data set on Total Enterococci (Day 29, completion of ramoplanin therapy); 8.6 log 10 cfu/g faeces in the data set on Total Enterococci (Day 36, 7 days after completion of ramoplanin therapy). In addition, the “mice that developed a recurrence of colonization after discontinuing treatment” value with VRE C68 (100 μg/ml in drinking water) was “One hundred”. The “mice that developed a detectable recurrence of colonization after discontinuing treatment” value in the data set with VRE C68 (500 μg/ml in drinking water) is 50%. In addition, the “levels of VRE in stool during treatment” value in the data set with VRE C68 (100 or 500 μg/ml in drinking water, 8 days, P<0.0001 vs controls) was “undetectable levels”. The “mice with VRE detectable in sections of the cecal lining” value in the data set on VRE C68 (setting [4]) came out at 25%. Also, in the data set with VRE C68 (setting [4]), the “mice with negative stool and cecal content cultures for VRE” value is given as 100%. Also, the “level of VRE in sections of the cecal lining” value in the data set on VRE C68 (the 2 positive mice, day 8 of 100 μg/ml drinking water) is listed as 2-3 log10 CFU/g. The “mean density of total anaerobes in stool” value in the data set with total anaerobes is given as “not significantly affected”. Moreover, the “stool DGGE patterns, mean similarity indices in comparison to the pre-treatment patterns” value in [1] came out at 72%. Besides, the “overgrowth of K. pneumoniae P62 in stool” value with K. pneumoniae P62 is “facilitated overgrowth”. Further, the “effect on faecal Gram-negative bacteria” value in data set [2] is listed as “no effect”. For the same substance, the “faecal concentrations of staphylococci, streptococci, and enterococci” value in [3] (by day 10, all subjects) was “below the level of detection”. Also, in data set [3] (first measurement on day 4), the “effect on faecal Gram-positive bacteria” value is listed as “marked effect”. Besides, the “effect on faecal yeast” value in the data set on yeast is recorded as “no effect”. Besides, the “Ramoplanin MIC90” value in the data set with E. faecium is 0.5 µg/mL; with S. aureus (MRSA), 0.25 µg/mL; in the data set on Bacillus spp., 0.25 µg/mL.
